# According to paper PMC8341399, “A STING-based fluorescent polarization assay for monitoring activities of cyclic dinucleotide metabolizing enzymes” (RSC Chemical Biology, 2020):
# Read-outs that look alike come from different tables or passages of the source.
# Tests used:
# hSTING [1] = biological target: T1, hSTING (Homo sapiens, UniProt Q86WV6); assay: hSTING titration of fluorescein-labeled cyclic dinucleotide probes by fluorescence polarization; format: binding; details: 50 nM probe, 1× PBS, 5 min room temperature, n = 3; read-out: Kd (dissociation constant, probe-hSTING)
# T1 construct: SUMO; His; made in house; host or cells: E. coli Rosetta 2(pLysS)
# hSTING [2] = biological target: T1, hSTING; details: cited from earlier work; for Kd: natural cyclic dinucleotides, read-out: Kd (binding constant for hSTING)
# hSTING [3] = biological target: T1, hSTING; assay: Probe displacement assay: F-c-di-GMP displaced from hSTING by unlabeled cyclic dinucleotides (FP); format: binding; details: 50 nM F-c-di-GMP, 10 μM hSTING; read-out: apparent half maximal inhibitory concentration (displacement of F-c-di-GMP)
# hENPP1 [4] = test system: T2, hENPP1; assay: ENPP1 cGAMP hydrolysis tracking, HPLC analysis; format: biochemical, human; details: ENPP1 9.16 nM, 50 μM cGAMP
# T2 construct: purchased R&D Systems
# hENPP1 [5] = test system: T2, hENPP1; assay: ENPP1 cGAMP hydrolysis tracking, FP assay detection; format: biochemical, human; details: ENPP1 9.16 nM, 50 μM cGAMP
# [6] = ENPP1 hydrolysis products of cGAMP, stated without reference
# T1 sequence (Q86WV6 155-341 limits assumed): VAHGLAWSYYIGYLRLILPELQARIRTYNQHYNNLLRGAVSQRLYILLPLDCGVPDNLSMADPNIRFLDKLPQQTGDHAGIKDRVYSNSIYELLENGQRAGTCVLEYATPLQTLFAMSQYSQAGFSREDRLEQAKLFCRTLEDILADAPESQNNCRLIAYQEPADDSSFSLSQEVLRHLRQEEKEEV
molecule,measurement,setting,value
2′-O-(6-[fluoresceinyl]aminohexylcarbamoyl)-cyclic diadenosine monophosphate [F-c-di-AMP],Kd,hSTING [1],29.8 ± 6.3 µM
2′-O-(6-[fluoresceinyl]aminohexylcarbamoyl)-cyclic diguanosine monophosphate [F-c-di-GMP],Kd,hSTING [1],3.45 ± 0.48 µM
Nc1ncnc2c1ncn2[C@@H]1O[C@H](COP(=O)(O)O)[C@@H](O)[C@H]1O [AMP],hSTING binding,hSTING [2]; [6],do not bind
Nc1nc2c(ncn2[C@@H]2O[C@H](COP(=O)(O)O)[C@@H](O)[C@H]2O)c(=O)[nH]1 [GMP],hSTING binding,hSTING [2]; [6],do not bind
Nc1nc2c(ncn2[C@@H]2O[C@H](CO)[C@@H](O)[C@H]2OP(=O)(O)OC[C@H]2O[C@@H](n3cnc4c(N)ncnc43)[C@H](O)[C@@H]2OP(=O)(O)O)c(=O)[nH]1 [Gp[2′–5′]Ap[3′]],hSTING binding,hSTING [2]; poxin product of cGAMP,does not bind
Nc1ncnc2c1ncn2[C@@H]1O[C@@H]2COP(=O)(O)O[C@H]3[C@@H](O)[C@H](n4cnc5c(N)ncnc54)O[C@@H]3COP(=O)(O)O[C@H]2[C@H]1O [c-di-AMP],Kd,hSTING [2],1.38 µM
same,IC50,hSTING [3],7.35 ± 0.86 µM
Nc1nc2c(ncn2[C@@H]2O[C@@H]3COP(=O)(O)O[C@H]4[C@@H](O)[C@H](n5cnc6c(=O)[nH]c(N)nc65)O[C@@H]4COP(=O)(O)O[C@H]3[C@H]2O)c(=O)[nH]1 [c-di-GMP],Kd,hSTING [2],1.21 µM
same,IC50,hSTING [3],7.41 ± 0.49 µM
"Nc1nc2c(ncn2[C@@H]2O[C@@H]3COP(=O)(O)O[C@H]4[C@@H](O)[C@H](n5cnc6c(N)ncnc65)O[C@@H]4COP(=O)(O)O[C@@H]2[C@@H]3O)c(=O)[nH]1 [cGAMP, 2′3-cGAMP]",cGAMP percent cleavage HPLC,hENPP1 [4]; 0 min,0%
same,cGAMP percent cleavage HPLC,hENPP1 [4]; 10 min,44%
same,cGAMP percent cleavage HPLC,hENPP1 [4]; 20 min,56%
same,cGAMP percent cleavage HPLC,hENPP1 [4]; 40 min,76%
same,cGAMP percent cleavage HPLC,hENPP1 [4]; 50 min,85%
same,cGAMP percent cleavage FP Assay,hENPP1 [5]; 0 min,0%
same,cGAMP percent cleavage FP Assay,hENPP1 [5]; 10 min,49%
same,cGAMP percent cleavage FP Assay,hENPP1 [5]; 20 min,77%
same,cGAMP percent cleavage FP Assay,hENPP1 [5]; 30 min,98%
same,cGAMP percent cleavage FP Assay,hENPP1 [5]; 40 min,95%
same,cGAMP percent cleavage FP Assay,hENPP1 [5]; 50 min (assumed 100% cleavage),100%
